Molecules are shown by their SMILES. ≈ marks a conversion by molar mass, not a printed value. Structures can show the parent of a compound that is named as a salt. Where two headings read alike, the source gives them in different places.

This is an account of results in publication PMC12811997 (Chemmedchem, 2025).

In data set [1] the target is SARS‐CoV‐2 RdRp complex (nsp12, nsp7, nsp8) (Severe acute respiratory syndrome coronavirus 2, UniProt P0DTD1). The experiment in a line: biochemical. The data set is classed as biochemical. Particulars: read-out: RA ± SD (residual activity of RdRp), at 10 μM concentration of screened compounds; AUC with compound / AUC of noninhibited reaction.
The test system of the next data set is SARS‐CoV‐2. Briefly: microbe, parasite or virus in culture. It is filed as cell-based.
Another data set is described as follows: in vitro. The following applies: human.
The nature of a further data set: Kinetic solubility. Particulars: for kinetic solubility: as restated in Conclusions.
Setting [2] is: Severe acute respiratory syndrome coronavirus 2, Calu‐3 cells infected with SARS‐CoV‐2, concentration required to reduce viral cytopathic effect by 50%, read-out: EC50.

Protocol for in vitro: Cytotoxicity was evaluated by incubating the same two‐fold serial dilutions of each compound with Calu‐3 cells as above but without the virus. Following 3 days of incubation at 37 °C in 5% CO2, the cell viability was determined by the addition of XTT solution as above. The compound cytotoxic concentrations resulting in a 50% reduction of absorbance (CC50) were calculated from plots of the percentage of absorbance versus log10 of drug concentration as above.

Turning to `O=C(Nc1cccc(C(F)(F)F)c1)Nc1c(Cl)cccc1Cl` [Compound 10, 1‐(2,6‐Dichlorophenyl)‐3‐(3‐(Trifluoromethyl)Phenyl)Urea], in data set [1], the remaining activity at 10 µM turned out to be 100%.
The EC50 is the concentration at which the effect is half-maximal. Regarding `O=C(Nc1ccc(C(F)(F)F)nc1)Nc1cc(Cl)cc(Cl)c1` [Compound 15, 1‐(3,5‐Dichlorophenyl)‐3‐(6‐(Trifluoromethyl)Pyridin‐3‐Yl)Urea], in the data set on SARS‐CoV‐2 (setting [2]), the EC50 was more than 1.3 µM. Moreover, in data set [1], the remaining activity at 10 µM is 35 ± 9%. In the data set “in vitro”, this compound displayed a CC50 at 3 days of 1.3 ± 0.13 µM.
The term kinetic solubility denotes the concentration staying in solution when a stock, usually in DMSO, is diluted into the medium. On to `CN1CCN(Cc2ccc(NC(=O)Nc3cc(Cl)cc(Cl)c3)cc2C(F)(F)F)CC1.Cl` [Compound 40, 1‐(3,5‐Dichlorophenyl)‐3‐(4‐((4‐Methylpiperazin‐1‐Yl)Methyl)‐3‐(Trifluoromethyl)Phenyl)Urea Hydrochloride], for which, in the data set on SARS‐CoV‐2 (setting [2]), the concentration giving a half-maximal response (EC50) was more than 13 µM. For the same compound, the remaining activity at 10 µM in data set [1] is approximately 65%. In “Kinetic solubility”, this compound showed a kinetic solubility of 43.5 µM L^−1. Moreover, the kinetic solubility in “Kinetic solubility” (kinetic from dmso stock) turned out to be 43.5 ± 0.8 µM. The compound also displayed a CC50 at 3 days in “in vitro” of 13 ± 0.8 µM.
As for `NC(=O)c1c(Cl)cc(Cl)cc1NC(=O)Nc1cccc(C(F)(F)F)c1` [Compound 28, 2,4‐Dichloro‐6‐(3‐(3‐(Trifluoromethyl)Phenyl)Ureido)Benzamide], the remaining activity at 10 µM in data set [1] turned out to be 100%.
With `COC(=O)CNCc1ccc(NC(=O)Nc2cc(Cl)cc(Cl)c2)cc1C(F)(F)F.Cl` [Compound 61, Methyl (4‐(3‐(3,5‐Dichlorophenyl)Ureido)‐2‐(Trifluoromethyl)Benzyl)Glycinate Hydrochloride], the EC50 in the data set on SARS‐CoV‐2 (setting [2]) was more than 8.4 µM. In data set [1], the remaining activity at 10 µM was found to be 43 ± 8%. In “Kinetic solubility”, this compound had a kinetic solubility of 21 µM L^−1. Moreover, the kinetic solubility in the data set “Kinetic solubility” (kinetic from dmso stock) worked out at 7 ± 0.6 µM. The “increase in kinetic solubility compared with compound 39” value in “Kinetic solubility” (relative to compound 39) is recorded as 1.7 fold. The CC50 at 3 days in “in vitro” worked out at 8.4 ± 0.46 µM.
As to `Cl.O=C(Nc1cc(Cl)cc(Cl)c1)Nc1ccc(C(F)(F)F)c(CN2CCCC2)c1` [Compound 46, 1‐(3,5‐Dichlorophenyl)‐3‐(3‐(Pyrrolidin‐1‐Ylmethyl)‐4‐(Trifluoromethyl)Phenyl)Urea Hydrochloride], the 50% effective concentration (EC50) in the data set on SARS‐CoV‐2 (setting [2]) is more than 15 µM. In addition, in data set [1], the remaining activity at 10 µM came to 67 ± 7%. Further, the kinetic solubility in the data set “Kinetic solubility” (kinetic from dmso stock) is 11.9 ± 0.4 µM. The CC50 at 3 days in “in vitro” was approximately 15 µM.
`CN1CCN(Cc2cc(NC(=O)Nc3cc(Cl)cc(Cl)c3)ccc2C(F)(F)F)CC1` [Compound 48, 1‐(3,5‐Dichlorophenyl)‐3‐(3‐((4‐Methylpiperazin‐1‐Yl)Methyl)‐4‐(Trifluoromethyl)Phenyl)Urea Hydrochloride]: the remaining activity at 10 µM in data set [1] was 100%.
Still for that read-out and setting: as for `NCc1ccc(NC(=O)Nc2cc(Cl)cc(Cl)c2)cc1C(F)(F)F` [Compound 41, 1‐(4‐(Aminomethyl)‐3‐(Trifluoromethyl)Phenyl)‐3‐(3,5‐Dichlorophenyl)Urea Hydrochloride], the figure is 78 ± 5%.
On to `Cl.O=C1CN(Cc2ccc(NC(=O)Nc3cc(Cl)cc(Cl)c3)cc2C(F)(F)F)CCN1` [Compound 70, 1‐(3,5‐Dichlorophenyl)‐3‐(4‐((3‐Oxopiperazin‐1‐Yl)Methyl)‐3‐(Trifluoromethyl)Phenyl)Urea Hydrochloride], for which the concentration for a half-maximal effect (EC50) with SARS‐CoV‐2 (setting [2]) was more than 9.5 µM. In addition, the remaining activity at 10 µM in data set [1] came to 63 ± 7%. In the data set “Kinetic solubility” (kinetic from dmso stock), this compound displayed a kinetic solubility of 11.2 ± 0.07 µM. Also, the CC50 at 3 days in the data set “in vitro” was 9.5 ± 0.28 µM.
As to `CN1CCN(Cc2c(Cl)cc(NC(=O)Nc3cccc(C(F)(F)F)c3)cc2Cl)CC1` [Compound 54, 1‐(3,5‐Dichloro‐4‐((4‐Methylpiperazin‐1‐Yl)Methyl)Phenyl)‐3‐(3‐(Trifluoromethyl)Phenyl)Urea Hydrochloride], in data set [1], the remaining activity at 10 µM was found to be 79 ± 5%.
For `O=C(Nc1cc(Cl)cc(Cl)c1)Nc1ccc(CNCCO)c(C(F)(F)F)c1` [Compound 59, 1‐(3,5‐Dichlorophenyl)‐3‐(4‐(((2‐Hydroxyethyl)Amino)Methyl)‐3‐(Trifluoromethyl)Phenyl)Urea Hydrochloride], the remaining activity at 10 µM in data set [1] is 76 ± 11%.
On to `NC(=O)c1ccc(C(F)(F)F)cc1NC(=O)Nc1cc(Cl)cc(Cl)c1` [Compound 25, 2‐(3‐(3,5‐Dichlorophenyl)Ureido)‐4‐(Trifluoromethyl)Benzamide], for which, in data set [1], the remaining activity at 10 µM was found to be 100%.
Turning to `NC(=O)c1ccc(NC(=O)Nc2cc(Cl)cc(Cl)c2)cc1C(F)(F)F` [Compound 24, 4‐(3‐(3,5‐Dichlorophenyl)Ureido)‐2‐(Trifluoromethyl)Benzamide], the EC50 in the data set on SARS‐CoV‐2 (setting [2]) was more than 14 µM. Further, the remaining activity at 10 µM in data set [1] was approximately 65%. Moreover, the kinetic solubility in “Kinetic solubility” was determined as 32.5 µM L^−1. The compound further showed a kinetic solubility in the data set “Kinetic solubility” (kinetic from dmso stock) of 32.5 ± 0.8 µM (≈ 12.7 µg/mL). In addition, the CC50 at 3 days in the data set “in vitro” was determined as 14 ± 1 µM.
`COC(=O)C1CN(Cc2ccc(NC(=O)Nc3cc(Cl)cc(Cl)c3)cc2C(F)(F)F)CCO1.Cl` (stereo not drawn) [Compound 69, Methyl 4‐(4‐(3‐(3,5‐Dichlorophenyl)Ureido)‐2‐(Trifluoromethyl)Benzyl)Morpholine‐2‐Carboxylate Hydrochloride]: in the data set on SARS‐CoV‐2 (setting [2]), the concentration for a half-maximal effect (EC50) is more than 34 µM. Further, the remaining activity at 10 µM in data set [1] stood at 42 ± 4%. In addition, the kinetic solubility in the data set “Kinetic solubility” (kinetic from dmso stock) was less than 2 µM. The same compound displayed a CC50 at 3 days in “in vitro” of 34 ± 5.6 µM.
For the compound `O=C(Nc1cc(Cl)cc(Cl)c1)Nc1ccc(CN2CCOC(C(=O)[O-])C2)c(C(F)(F)F)c1.[Li+]` (stereo not drawn) [Compound 71, Lithium 4‐(4‐(3‐(3,5‐Dichlorophenyl)Ureido)‐2‐(Trifluoromethyl)Benzyl)Morpholine‐2‐Carboxylate], in the data set on SARS‐CoV‐2 (Severe acute respiratory syndrome coronavirus 2, Calu-3), the EC50 was more than 32 µM. The remaining activity at 10 µM in data set [1] was approximately 65%. Also, the kinetic solubility in the data set “Kinetic solubility” is 71 µM L^−1. In the data set “Kinetic solubility” (kinetic from dmso stock), this compound had a solubility (kinetic) of 71 ± 1 µM. For the same compound, the CC50 at 3 days in “in vitro” is 32 ± 0.77 µM.
`O=C(Nc1cccc(C(F)(F)F)c1)Nc1ccc(Cl)cc1Cl` [Compound 9, 1‐(2,4‐Dichlorophenyl)‐3‐(3‐(Trifluoromethyl)Phenyl)Urea]: the EC50 in the data set with SARS‐CoV‐2 (setting [2]) is more than 6.9 µM. Further, in data set [1], the remaining activity at 10 µM was 64 ± 12%. The same compound displayed a solubility (kinetic) in the data set “Kinetic solubility” of less than 2 µM. This compound also gave a CC50 at 3 days in the data set “in vitro” of 6.9 ± 0.94 µM.
Turning to `Cl.O=C(Nc1cc(Cl)cc(Cl)c1)Nc1ccc(C(F)(F)F)c(CN2CCOCC2)c1` [Compound 47, 1‐(3,5‐Dichlorophenyl)‐3‐(3‐(Morpholinomethyl)‐4‐(Trifluoromethyl)Phenyl)Urea Hydrochloride], the concentration giving a half-maximal response (EC50) in the data set with SARS‐CoV‐2 (setting [2]) was more than 5.3 µM. The remaining activity at 10 µM in data set [1] stood at 65 ± 5%. For the same compound, the kinetic solubility in “Kinetic solubility” (kinetic from dmso stock) was less than 2 µM. This compound also yielded a CC50 at 3 days in “in vitro” of 5.3 ± 0.48 µM.
For `O=C(Nc1cc(Cl)cc(Cl)c1)Nc1ccccc1C(F)(F)F` [Compound 14, 1‐(3,5‐Dichlorophenyl)‐3‐(2‐(Trifluoromethyl)Phenyl)Urea], the remaining activity at 10 µM in data set [1] was determined as 100%.
For `O=C(Nc1ccc(C(F)(F)F)cc1)Nc1cc(Cl)cc(Cl)c1` [Compound 13, 1‐(3,5‐Dichlorophenyl)‐3‐(4‐(Trifluoromethyl)Phenyl)Urea], in the data set with SARS‐CoV‐2 (setting [2]), the EC50 was more than 0.29 µM. Also, in data set [1], the remaining activity at 10 µM worked out at 34 ± 14%. The compound further displayed a solubility (kinetic) in “Kinetic solubility” (kinetic from dmso stock) of less than 2.1 µM. Moreover, in “in vitro”, the CC50 at 3 days turned out to be 0.29 ± 0.03 µM.
On to `Cl.O=C(Nc1cc(Cl)cc(Cl)c1)Nc1ccc(CN2CCOCC2)c(C(F)(F)F)c1` [Compound 39, 1‐(3,5‐Dichlorophenyl)‐3‐(4‐(Morpholinomethyl)‐3‐(Trifluoromethyl)Phenyl)Urea Hydrochloride], for which the EC50 in the data set with SARS‐CoV‐2 (setting [2]) is more than 8.4 µM. Besides, in data set [1], the remaining activity at 10 µM came to 36 ± 7%. The compound also gave a kinetic solubility in the data set “Kinetic solubility” of 4.2 µM L^−1. This compound also came in with a solubility (kinetic) in “Kinetic solubility” (kinetic from dmso stock) of 4.2 ± 0.3 µM. In addition, the CC50 at 3 days in “in vitro” is 8.4 ± 1.1 µM.
Take `COCCNCc1ccc(NC(=O)Nc2cc(Cl)cc(Cl)c2)cc1C(F)(F)F` [Compound 58, 1‐(3,5‐Dichlorophenyl)‐3‐(4‐(((2‐Methoxyethyl)Amino)Methyl)‐3‐(Trifluoromethyl)Phenyl)Urea Hydrochloride]: in data set [1], the remaining activity at 10 µM is 100%.
With `O=C(O)CNCc1ccc(NC(=O)Nc2cc(Cl)cc(Cl)c2)cc1C(F)(F)F` [Compound 62, Lithium (4‐(3‐(3,5‐Dichlorophenyl)Ureido)‐2‐(Trifluoromethyl)Benzyl)Glycinate], the remaining activity at 10 µM in data set [1] was found to be 70 ± 10%.
As for `Cl.O=C(Nc1cc(Cl)cc(Cl)c1)Nc1ccc(CN2CCCC2)c(C(F)(F)F)c1` [Compound 38, 1‐(3,5‐Dichlorophenyl)‐3‐(4‐(Pyrrolidin‐1‐Ylmethyl)‐3‐(Trifluoromethyl)Phenyl)Urea Hydrochloride], the EC50 in the data set on SARS‐CoV‐2 (setting [2]) was more than 19 µM. For the same compound, the remaining activity at 10 µM in data set [1] stood at 46 ± 2%. For the same compound, the solubility (kinetic) in “Kinetic solubility” (kinetic from dmso stock) was less than 2 µM. The compound further came in with a CC50 at 3 days in the data set “in vitro” of 19 ± 1 µM.
On to `Cl.NC(=O)C1CN(Cc2ccc(NC(=O)Nc3cc(Cl)cc(Cl)c3)cc2C(F)(F)F)CCO1` (stereo not drawn) [Compound 72, 4‐(4‐(3‐(3,5‐Dichlorophenyl)Ureido)‐2‐(Trifluoromethyl)Benzyl)Morpholine‐2‐Carboxamide Hydrochloride], for which, in the data set on SARS‐CoV‐2 (setting [2]), the EC50 is more than 12 µM. Also, the remaining activity at 10 µM in data set [1] amounted to 52 ± 5%. The compound further showed a kinetic solubility in “Kinetic solubility” (kinetic from dmso stock) of 4.7 ± 0.1 µM. For the same compound, the CC50 at 3 days in “in vitro” amounted to 12 ± 0.51 µM.
For `Cl.O=C(Nc1cc(Cl)cc(Cl)c1)Nc1ccc(CN2CCS(=O)(=O)CC2)c(C(F)(F)F)c1` [Compound 68, 1‐(3,5‐Dichlorophenyl)‐3‐(4‐((1,1‐Dioxidothiomorpholino)Methyl)‐3‐(Trifluoromethyl)Phenyl)Urea Hydrochloride], the EC50 with SARS‐CoV‐2 (setting [2]) is more than 5.9 µM. In addition, in data set [1], the remaining activity at 10 µM is 37 ± 5%. In “Kinetic solubility” (kinetic from dmso stock), the kinetic solubility is 2.57 ± 0.04 µM. In “in vitro”, the CC50 at 3 days was 5.9 ± 0.51 µM.
Regarding `O=C(Nc1cc(Cl)cc(Cl)c1)Nc1cnc(C(F)(F)F)cn1` [Compound 19, 1‐(3,5‐Dichlorophenyl)‐3‐(5‐(Trifluoromethyl)Pyrazin‐2‐Yl)Urea], the remaining activity at 10 µM in data set [1] was 75 ± 8%.
Still for that read-out and setting: as for `O=C(Nc1cc(Cl)cc(Cl)c1)Nc1ccc(C(F)(F)F)cn1` [Compound 16, 1‐(3,5‐Dichlorophenyl)‐3‐(5‐(Trifluoromethyl)Pyridin‐2‐Yl)Urea], the figure is 100%; as for `O=C(Nc1cc(Cl)cc(Cl)c1)Nc1ccc(C(F)(F)F)nn1` [Compound 17, 1‐(3,5‐Dichlorophenyl)‐3‐(6‐(Trifluoromethyl)Pyridazin‐3‐Yl)Urea], 68 ± 9%.
